Measured values: patent publication US20070117743A1, “New antitumoral compounds” (priority 2003, published 2007)
Where two headings read alike, the source gives them in different places. Where a SMILES comes first, the peptide text is derived from it. Bridges are numbered along the chain shown (N, C = ends). [ ]: non-standard residue; d: D form. The star is where a group is joined. d(aIle) = CC[C@H](C)[C@@H](N)C(=O)O; d(aThr) = C[C@@H](O)[C@@H](N)C(=O)O; Hexanoyl(5-Me) = CC(C)CCCC(=O)*; Orn = NCCC[C@H](N)C(=O)O; Dhb = C/C=C(\N)C(=O)O

Tests used:
Format in all cases: cell-based, human
A-549 = test: SRB colorimetric assay of cell growth and viability, A-549; conditions: 48 hours exposure; for GI50: read-out: GI50 A-549; for CC50: read-out: LC50 A-549
SK-MEL-28 = test: SRB colorimetric assay of cell growth and viability, SK-MEL-28; conditions: 48 hours exposure; for CC50: read-out: LC50 MEL-28
HT-29 = test: SRB colorimetric assay of cell growth and viability, HT-29; conditions: 48 hours exposure; for GI50: read-out: GI50 HT-29; for CC50: read-out: LC50 HT-29
LoVo = test: SRB colorimetric assay of cell growth and viability, LoVo; conditions: 48 hours exposure; for CC50: read-out: LC50 LOVO
LoVo-Dox = test: SRB colorimetric assay of cell growth and viability, LoVo-Dox; conditions: 48 hours exposure; for CC50: read-out: LC50 LOVO-DOX
Summary of the method: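 After 48 hours continuous exposure to samples spanning 10 to 10^−8 μg/mL, biomass was quantified by sulforhodamine B staining of TCA-fixed cells (OD 490 nm). Cells, 5×10^3 per well in RPMI 1640 10% FBS, had attached 18 hours first; GI, TGI and LC derived from triplicate wells.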

DU-145 = test: SRB colorimetric assay of cell growth and viability, DU-145; conditions: 48 hours exposure
IGROV-1 = test: SRB colorimetric assay of cell growth and viability, IGROV-1; conditions: 48 hours exposure
IGROV-ET = test: SRB colorimetric assay of cell growth and viability, IGROV-ET; conditions: 48 hours exposure; for CC50: read-out: LC50 IGROV-ET
HeLa = test: SRB colorimetric assay of cell growth and viability, HeLa; conditions: 48 hours exposure; for CC50: read-out: LC50 HELA
HeLa-APL = test: SRB colorimetric assay of cell growth and viability, HeLa-APL; conditions: 48 hours exposure; for CC50: read-out: LC50 HELA-APL
K-562 = test: SRB colorimetric assay of cell growth and viability, K-562; conditions: 48 hours exposure; for CC50: read-out: LC50 K-562
PANC-1 = test: SRB colorimetric assay of cell growth and viability, PANC-1; conditions: 48 hours exposure; for CC50: read-out: LC50 PANC-1

## C/C=C1\NC(=O)[C@H](Cc2ccccc2)NC(=O)[C@@H](C(C)C)NC(=O)[C@@H]([C@@H](C)CC)NC(=O)[C@H](NC(=O)[C@H](NC(=O)[C@H](CCCN)NC(=O)[C@H]2CCCN2C(=O)[C@H](NC(=O)[C@@H](NC(=O)[C@H](CCCN)NC(=O)CCCC(C)C)C(C)C)C(C)C)[C@@H](C)CC)[C@@H](C)OC(=O)[C@H](C(C)C)NC1=O [Compound 57, [Orn^12, noD-Val^13]-KF] ({Hexanoyl(5-Me)}-[Orn]V[dV][dP][Orn][d(aIle)][d(aThr)][d(aIle)][dV]F[Dhb]V; ester 7-C)
A-549; SRB
  TGI A-549: 7.18E−06 Molar
  GI50: ≥ 7.18 µM
  CC50: ≥ 7.18 µM
SK-MEL-28
  GI50: ≥ 7.18 µM
  TGI MEL-28: 7.18E−06 Molar
  CC50: ≥ 7.18 µM
HT-29; SRB
  TGI HT-29: 7.18E−06 Molar
  GI50: ≥ 7.18 µM
  CC50: ≥ 7.18 µM
LoVo; SRB
  GI50: ≥ 7.18 µM
  TGI LOVO: 7.18E−06 Molar
  CC50: ≥ 7.18 µM
LoVo-Dox; SRB
  GI50: ≥ 7.18 µM
  TGI LOVO-DOX: 7.18E−06 Molar
  CC50: ≥ 7.18 µM
DU-145
  GI50: ≥ 7.18 µM
  LC50 (concentration causing 50% net cell kill): ≥ 7.18 µM
  TGI DU-145: 7.18E−06 Molar
IGROV-1
  GI50: ≥ 7.18 µM
  LC50 (concentration causing 50% net cell killing): ≥ 7.18 µM
  TGI IGROV: 7.18E−06 Molar
IGROV-ET
  GI50: ≥ 7.18 µM
  TGI IGROV-ET: 7.18E−06 Molar
  CC50: ≥ 7.18 µM
HeLa; SRB
  GI50: ≥ 7.18 µM
  TGI HELA: 7.18E−06 Molar
  CC50: ≥ 7.18 µM
HeLa-APL; SRB
  GI50: ≥ 7.18 µM
  TGI HELA-APL: 7.18E−06 Molar
  CC50: ≥ 7.18 µM
K-562; SRB
  GI50: ≥ 7.18 µM
  TGI K-562: 7.18E−06 Molar
  CC50: ≥ 7.18 µM
PANC-1; SRB
  GI50: 3.88 µM
  TGI PANC-1: 7.18E−06 Molar
  CC50: ≥ 7.18 µM

## C/C=C1\NC(=O)[C@H](Cc2ccccc2)NC(=O)[C@@H](C(C)C)NC(=O)[C@@H]([C@@H](C)CC)NC(=O)[C@H](NC(=O)[C@H](NC(=O)[C@H](CCCN)NC(=O)[C@H]2CCCN2C(=O)[C@H](NC(=O)[C@@H](NC(=O)[C@@H](NC(=O)[C@@H](CCC(=O)O)NC(=O)CCCC(C)C)[C@@H](C)O)C(C)C)C(C)C)[C@@H](C)CC)[C@@H](C)OC(=O)[C@H](C(C)C)NC1=O [Compound 39, [D-Glu^13]-KF]
A-549
  TGI A-549: 6.63E−06 Molar
  GI50: 4.41 µM
  CC50: 6.63 µM
SK-MEL-28
  GI50: 3.39 µM
  TGI MEL-28: 6.63E−06 Molar
  CC50: 6.63 µM
HT-29
  TGI HT-29: 2.16E−06 Molar
  GI50: 1.2 µM
  CC50: 3.87 µM
LoVo
  GI50: 0.889 µM
  TGI LOVO: 1.72E−06 Molar
  CC50: 3.34 µM
LoVo-Dox
  GI50: 0.889 µM
  TGI LOVO-DOX: 1.70E−06 Molar
  CC50: 3.26 µM
DU-145
  GI50: 3.48 µM
  LC50 (concentration causing 50% net cell kill): 6.63 µM
  TGI DU-145: 6.63E−06 Molar
IGROV-1
  GI50: 1.33 µM
  LC50 (concentration causing 50% net cell killing): 4.11 µM
  TGI IGROV: 2.33E−06 Molar
IGROV-ET
  GI50: 1.29 µM
  TGI IGROV-ET: 2.29E−06 Molar
  CC50: 4.09 µM
HeLa
  GI50: 4.18 µM
  TGI HELA: 6.63E−06 Molar
  CC50: 6.63 µM
HeLa-APL
  GI50: 2.75 µM
  TGI HELA-APL: 6.63E−06 Molar
  CC50: 6.63 µM
K-562
  GI50: 1.27 µM
  TGI K-562: 2.47E−06 Molar
  CC50: 4.82 µM
PANC-1
  GI50: 4.1 µM
  TGI PANC-1: 6.63E−06 Molar
  CC50: 6.63 µM

## C/C=C1\NC(=O)[C@H](Cc2ccccc2)NC(=O)[C@@H](C(C)C)NC(=O)[C@@H]([C@@H](C)CC)NC(=O)[C@H](NC(=O)[C@H](NC(=O)[C@H](CCCN)NC(=O)[C@H]2CCCN2C(=O)[C@H](NC(=O)[C@@H](NC(=O)[C@H](CC(C)C)NC(=O)CCCC(C)C)C(C)C)C(C)C)[C@@H](C)CC)[C@@H](C)OC(=O)[C@H](C(C)C)NC1=O [Compound 54, [Leu^12, noD-Val^13]-KF] ({Hexanoyl(5-Me)}-LV[dV][dP][Orn][d(aIle)][d(aThr)][d(aIle)][dV]F[Dhb]V; ester 7-C)
A-549
  TGI A-549: 2.19E−06 Molar
  GI50: 1.14 µM
  CC50: 4.23 µM
SK-MEL-28
  GI50: 1.24 µM
  TGI MEL-28: 2.20E−06 Molar
  CC50: 3.9 µM
HT-29
  TGI HT-29: 3.51E−06 Molar
  GI50: 1.88 µM
  CC50: 6.55 µM
LoVo
  GI50: 1.08 µM
  TGI LOVO: 2.14E−06 Molar
  CC50: 4.21 µM
LoVo-Dox
  GI50: 1.55 µM
  TGI LOVO-DOX: 2.88E−06 Molar
  CC50: 5.37 µM
DU-145
  GI50: 1.49 µM
  LC50 (concentration causing 50% net cell kill): 4.61 µM
  TGI DU-145: 2.62E−06 Molar
IGROV-1
  GI50: 1.11 µM
  LC50 (concentration causing 50% net cell killing): 3.92 µM
  TGI IGROV: 2.09E−06 Molar
IGROV-ET
  GI50: 1.45 µM
  TGI IGROV-ET: 2.57E−06 Molar
  CC50: 4.57 µM
HeLa
  GI50: 0.841 µM
  TGI HELA: 1.73E−06 Molar
  CC50: 3.54 µM
HeLa-APL
  GI50: 1.08 µM
  TGI HELA-APL: 2.04E−06 Molar
  CC50: 3.88 µM
K-562
  GI50: 1.31 µM
  TGI K-562: 2.40E−06 Molar
  CC50: 4.41 µM
PANC-1
  GI50: 0.863 µM
  TGI PANC-1: 2.01E−06 Molar
  CC50: 4.68 µM

## C/C=C1\NC(=O)[C@H](Cc2ccccc2)NC(=O)[C@@H](C(C)C)NC(=O)[C@@H]([C@@H](C)CC)NC(=O)[C@H](NC(=O)[C@H](NC(=O)[C@H](CCCN)NC(=O)[C@H]2CCCN2C(=O)[C@H](NC(=O)[C@@H](NC(=O)[C@@H](NC(=O)[C@@H](Cc2ccccc2)NC(=O)CCCC(C)C)[C@@H](C)O)C(C)C)C(C)C)[C@@H](C)CC)[C@@H](C)OC(=O)[C@H](C(C)C)NC1=O [Compound 36, [D-Phe^13]-KF]
A-549
  TGI A-549: 5.14E−08 Molar
  GI50: 0.00481 µM
  CC50: 0.99 µM
SK-MEL-28
  GI50: 0.154 µM
  TGI MEL-28: 7.21E−07 Molar
  CC50: 2.2 µM
HT-29
  TGI HT-29: 1.21E−06 Molar
  GI50: 0.398 µM
  CC50: 2.84 µM
LoVo
  GI50: 0.136 µM
  TGI LOVO: 9.63E−07 Molar
  CC50: 2.44 µM
LoVo-Dox
  GI50: 0.3 µM
  TGI LOVO-DOX: 9.63E−07 Molar
  CC50: 2.15 µM
DU-145
  GI50: 0.266 µM
  LC50 (concentration causing 50% net cell kill): 2.49 µM
  TGI DU-145: 6.75E−07 Molar
IGROV-1
  GI50: 0.144 µM
  LC50 (concentration causing 50% net cell killing): 2.5 µM
  TGI IGROV: 9.90E−07 Molar
IGROV-ET
  GI50: 0.852 µM
  TGI IGROV-ET: 1.74E−06 Molar
  CC50: 3.55 µM
HeLa
  GI50: 0.00786 µM
  TGI HELA: 9.50E−08 Molar
  CC50: 0.701 µM
HeLa-APL
  GI50: 0.0819 µM
  TGI HELA-APL: 6.55E−06 Molar
  CC50: 6.55 µM
K-562
  GI50: 0.42 µM
  TGI K-562: 1.25E−06 Molar
  CC50: 2.9 µM
PANC-1
  GI50: 0.00662 µM
  TGI PANC-1: 2.73E−08 Molar
  CC50: 0.976 µM
